Here are results for 7 compounds from ChEMBL document CHEMBL1138442, “Structural insight into the inhibition of human kynurenine aminotransferase I/glutamine transaminase K” (J Med Chem, 2009).

Assay [1] addresses T1, Kynurenine--oxoglutarate transaminase 1 (Homo sapiens, UniProt Q16773).
T1 sequence (Q16773 whole entry): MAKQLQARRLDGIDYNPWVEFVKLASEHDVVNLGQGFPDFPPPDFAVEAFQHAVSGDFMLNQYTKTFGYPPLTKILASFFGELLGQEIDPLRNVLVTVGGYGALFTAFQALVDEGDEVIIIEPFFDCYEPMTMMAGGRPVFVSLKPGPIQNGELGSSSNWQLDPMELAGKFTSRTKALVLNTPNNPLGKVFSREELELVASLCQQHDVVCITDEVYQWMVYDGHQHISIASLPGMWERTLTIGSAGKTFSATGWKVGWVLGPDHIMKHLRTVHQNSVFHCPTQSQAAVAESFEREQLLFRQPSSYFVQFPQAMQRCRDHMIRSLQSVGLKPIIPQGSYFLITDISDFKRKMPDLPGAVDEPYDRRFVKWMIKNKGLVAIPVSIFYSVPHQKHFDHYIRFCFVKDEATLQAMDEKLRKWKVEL
The assay can be described thus: (§1) Inhibition of human recombinant KAT1 expressed in Sf9 cells.

Assay [2] addresses T2, Kynurenine--oxoglutarate transaminase 1 (Homo sapiens) (UniProt Q16773).
T2 sequence (whole entry): T1 sequence (Q16773 whole entry)
The experiment in a line: Inhibition of human recombinant KAT1 expressed in Sf9 cells assessed as decrease in enzyme activity at 25 % ligand concentration. Details: scale not given: the % may be the effect or the level left.

For assay [3], the target named is T2, Kynurenine--oxoglutarate transaminase 1 (Homo sapiens). The description is as §1.

Molecules are shown by their SMILES. The source made the active and inactive calls. The rule behind the calls is not given here.

Take `O=C(O)C(O)Cc1c[nH]c2ccccc12` (racemic): the IC50 in assay [1] turned out to be 220 µM.
With `OCC(O)CO`, in assay [2], the Activity was 10%.
Take `O=C(O)C(=O)Cc1c[nH]c2ccccc12`: the outcome in assay [3] was Active.
On the same count and under the same terms, with `O=C(O)/C=C/c1c[nH]c2ccccc12` the entry was “Active”; with `N[C@@H](Cc1c[nH]c2ccccc12)C(=O)O`, “Active”.
On the same count and under the same terms, in the case of `O=C(O)Cc1c[nH]c2ccccc12` it was “Active”.
On to `O=C(O)CCc1c[nH]c2ccccc12` [INDOLYLPROPIONIC ACID], for which, in assay [1], the IC50 was 140 µM.
